According to US20100004257A1 (University of South Floria, priority 2007, published 2010):

Assays:
[1] = system: imatinib-resistant BCR-ABL mutants; settings: number of mutants / mutants tested; cited from earlier work
H1299 cells = assay: MTT assay after 120 hours, IC50; assay type: cell-based, Human
Description: (§1) Cell lines and cell culture. Human lung cancer cell lines were maintained in RPMI 1640 plus 5% bovine calf serum (BCS). H3255 cells were provided by Dr. Pasi Janne (Dana-Farber, Boston, Mass.) and grown in ACL-4 medium (12). HCC827 cells were provided by Dr. Jon Kurie (M. D. Anderson, Houston, Tex.). PC9 cells were provided by Dr. Matthew Lazzara (Massachusetts Institute of Technology, Boston, Mass.). […]. Gefitinib was provided by AstraZeneca (Wilmington, Del.) and dasatinib by Bristol-Myers Squibb Oncology (Princeton, N.J.). For cell transfection experiments, 2×10^6 HEK293 cells in a 6-cm dish maintained in DMEM/10% BCS were transfected with 1 Ag plasmid DNA for 3 hours using LipofectAMINE 2000 (Invitrogen, Carlsbad, Calif.) and then allowed to go 24 hours before being treated with inhibitors.
(§2) Cytotoxicity and apoptosis assays. Cytotoxicity assays [3-(4,5-dimethylthiazol-2-yl)-2,5-diphenyltetrazolium bromide] were done according to the manufacturer's recommendations (Roche, Indianapolis, Ind.). […] Data presented represent three separate experiments with eight data points per concentration per experiment. Apoptosis [PharMingen (San Diego, Calif.) Apo-BrdU kit] and cell cycle changes (propidium iodide staining and flow cytometry) were assayed as before (13). Data are expressed as mean±SD.

H157 cells = assay: MTT assay after 120 hours, IC50; assay type: cell-based, Human
Description: as §1, §2

H1648 cells = assay: MTT assay after 120 hours, IC50; assay type: cell-based, Human
Description: as §1, §2

H292 cells = assay: MTT assay after 120 hours, IC50; assay type: cell-based, Human
Description: as §1, §2

H322 cells = assay: MTT assay after 120 hours, IC50; assay type: cell-based, Human
Description: as §1, §2

H358 cells [2] = assay: MTT assay after 120 hours, IC50; assay type: cell-based, Human
Description: as §1, §2

H2122 cells = assay: MTT assay after 120 hours, IC50; assay type: cell-based; settings: Homo sapiens, NCI-H2122, 120 h, read-out: Dasatinib IC50 (Nm)
Description: as §1, §2

H226 cells = assay: MTT assay after 120 hours, IC50; assay type: cell-based; settings: Homo sapiens, NCI-H226, 120 h, read-out: Dasatinib IC50 (Nm)
Description: as §1, §2

H23 cells = assay: MTT assay after 120 hours, IC50; assay type: cell-based; settings: Homo sapiens, NCI-H23, 120 h, read-out: Dasatinib IC50 (Nm)
Description: as §1, §2

H441 cells [3] = assay: MTT assay after 120 hours, IC50; assay type: cell-based; settings: Homo sapiens, NCI-H441, 120 h, read-out: Dasatinib IC50 (Nm)
Description: as §1, §2

H460 cells = assay: MTT assay after 120 hours, IC50; assay type: cell-based; settings: Homo sapiens, NCI-H460, 120 h, read-out: Dasatinib IC50 (Nm)
Description: as §1, §2

H1650 cells = assay: Cell viability, dasatinib compared with gefitinib, 72 hours; assay type: cell-based, Human; settings: H1650 grown in 5% BCS, FIG. 6
Method: FIG. 6. presents a series of four graphs, with each graph representative of a different cell line as indicated at the top of the graph.
Cytotoxicity and apoptosis assays. Cytotoxicity assays [3-(4,5-dimethylthiazol-2-yl)-2,5-diphenyltetrazolium bromide] were done according to the manufacturer's recommendations (Roche, Indianapolis, Ind.). Cells (5×10^3) in medium with 5% BCS were placed into single wells in a 96-well plate and exposed to indicated agents, and viability was assessed after 72 hours. Data presented represent three separate experiments with eight data points per concentration per experiment. Apoptosis [PharMingen (San Diego, Calif.) Apo-BrdU kit] and cell cycle changes (propidium iodide staining and flow cytometry) were assayed as before (13). Data are expressed as mean±SD.

[4] = system: pAkt, cleaved PARP in PC9 cells; assay: Western analysis of pAkt, pSTAT3 and cleaved PARP; assay type: cell-based, Human; settings: 24 hours
[5] = system: pAkt, pSTAT3, cleaved PARP in H3255 cells; assay: Western analysis of pAkt, pSTAT3 and cleaved PARP; assay type: cell-based, Human; settings: increasing concentrations, 24 hours
[6] = system: pAkt, pSTAT3, cleaved PARP in H1650 cells; assay: Western analysis of pAkt, pSTAT3 and cleaved PARP; assay type: cell-based, Human; settings: 24 hours
[7] = system: pAkt, pSTAT3, cleaved PARP in H1975 cells; assay: Western analysis of pAkt, pSTAT3 and cleaved PARP; assay type: cell-based, Human; settings: 24 hours
[8] = system: pTyr416 Src (pSrc) family in PC9 cells; assay: Western analysis of Src phosphorylation status; assay type: cell-based, Human; settings: 50 nmol/L, 24 hours
[9] = system: pTyr416 Src (pSrc) family in H1650 cells; assay: Western analysis of Src phosphorylation status; assay type: cell-based, Human; settings: H1650 cells; 50 nmol/L; monohydrate
[10] = system: pTyr416 Src (pSrc) family in H1975 cells; assay: Western analysis of Src phosphorylation status; assay type: cell-based, Human; settings: 24 hours, dasatinib at 50 nmol/L
[11] = system: pFAK, pSTAT3, pAkt, pERK in A549 cells; assay: Western analysis of pFAK, pSTAT3, pAkt, pERK; assay type: cell-based, Human; settings: 500 nmol/L, 3 hours
A549 cells = assay: Cell cycle profile and cyclin D/p27 Western analysis; assay type: cell-based, Human; settings: 24 hours, gefitinib 1 μmol/L, dasatinib 500 nmol/L
H441 cells [12] = assay: Combination effect in cell viability assays, median dose effect method; assay type: cell-based, Human; settings: dose range used
Method: Combination effects were evaluated by median dose effect method.

H358 cells [13] = settings: 24 hours, gefitinib 1 μmol/L, dasatinib 500 nmol/L, or the combination
[14] = dosing for CML; ODAC briefing document; cited from earlier work

Q: For Cc1cn(-c2cc(NC(=O)c3ccc(C)c(Nc4nccc(-c5cccnc5)n4)c3)cc(C(F)(F)F)c2)cn1 [AMN107], which “imatinib-resistant BCR-ABL mutants against which significantly active” value [1] is on record?
A: 32/33

Q: Which results are given for Cc1nc(Nc2ncc(C(=O)Nc3c(C)cccc3Cl)s2)cc(N2CCN(CCO)CC2)n1 [dasatinib, N-(2-chloro-6-methylphenyl)-2-[[6-[4-[(2-hydroxyethyl)-1-pipperazinyl]-2-methyl-4-pyrimidinyl]amino]-5-thiazolecarboxamide, monohydrate]?
A: SRC Sensitivity (H1299 cells; H1299, Large Cell, EGFR WT, MTT 120 hours): S (SRC TKI Sensitivity Definition: IC50 less than 100 nM); IC50 (H1299 cells; Homo sapiens, NCI-H1299, 120 h, read-out: Dasatinib IC50 (Nm)): 31.6 nM; SRC Sensitivity (H157 cells; H157, Squamous, EGFR WT, MTT 120 hours): S (SRC TKI Sensitivity Definition: IC50 less than 100 nM); IC50 (H157 cells; Homo sapiens, NCI-H157, 120 h, read-out: Dasatinib IC50 (Nm)): 48.9 nM; SRC Sensitivity (H1648 cells; H1648, Adeno, EGFR WT, MTT 120 hours): S (SRC TKI Sensitivity Definition: IC50 less than 100 nM); IC50 (H1648 cells; Homo sapiens, NCI-H1648, 120 h, read-out: Dasatinib IC50 (Nm)): 20.9 nM; SRC Sensitivity (H292 cells; H292, Squamous, EGFR WT, MTT 120 hours): S (SRC TKI Sensitivity Definition: IC50 less than 100 nM); IC50 (H292 cells; Homo sapiens, NCI-H292, 120 h, read-out: Dasatinib IC50 (Nm)): 28.4 nM; SRC Sensitivity (H322 cells; H322, BAC, EGFR WT, MTT 120 hours): S (SRC TKI Sensitivity Definition: IC50 less than 100 nM); IC50 (H322 cells; Homo sapiens, NCI-H322, 120 h, read-out: Dasatinib IC50 (Nm)): 11.6 nM; SRC Sensitivity (H358 cells [2]; H358, BAC, EGFR WT, MTT 120 hours): S (SRC TKI Sensitivity Definition: IC50 less than 100 nM); IC50 (H358 cells [2]; Homo sapiens, NCI-H358, 120 h, read-out: Dasatinib IC50 (Nm)): 27.4 nM; IC50 (H2122 cells): 486 nM; IC50 (H226 cells): 709 nM; IC50 (H23 cells): > 2000 nM; IC50 (H441 cells [3]): > 2000 nM; IC50 (H460 cells): > 2000 nM; cell viability, dasatinib versus gefitinib (H1650 cells): inhibited cell viability more than gefitinib; PARP cleavage ([4]; gefitinib at 50 nmol/L, dasatinib at increasing concentrations): associated changes in PARP cleavage; pAkt ([4]; increasing concentrations): dose-dependent inhibition of pAkt; PARP cleavage [5]: increase in PARP cleavage; pAkt and pSTAT3 [5]: concentration-dependent decrease of both pAkt and pSTAT3; pSTAT3 ([6]; H1650, any growth conditions): No effect; PARP cleavage ([6]; H1650 grown in 5% BCS): induction of PARP cleavage; pAkt ([6]; H1650 grown in 5% BCS, dasatinib at 50 nmol/L): inhibits pAkt; pAkt ([6]; H1650 in low serum with exogenous EGF, 50 nmol/L): inhibit pAkt; degree of PARP cleavage, dasatinib versus gefitinib ([6]; H1650 in low serum with exogenous EGF): degree of PARP cleavage is higher; PARP cleavage [7]: no PARP cleavage; pAkt or pSTAT3 [7]: neither gefitinib nor dasatinib affects; pSrc [8]: inhibits pSrc; autophosphorylation of Tyr416 on Src family members (pSrc) [9]: completely inhibits pSrc; pSrc [10]: completely inhibits the low levels of pSrc; pFAK [11]: reduction in pFAK; pSTAT3, pAkt, or pERK [11]: no significant reductions; cell cycle profile (A549 cells; FIG. 12): cell cycle arrest characterized by increased G1 fraction and reduced S-phase fraction; cyclin D3 and p27 proteins (A549 cells; FIG. 13): decline in cyclin D3 and an increase in p27; effect on cell viability (H441 cells [12]): no effect; G1 cell cycle arrest (H358 cells [13]): G1 cell cycle arrest to the same extent; cyclins D1 and D3 and p27 protein levels (H358 cells [13]): reduced cyclins D1 and D3 and increased p27 protein levels; Cmax [14]: 60 to 120 nM
